Assay results from patent US8450304B2, “4-azetidinyl-1-heteroaryl-cyclohexanol antagonists of CCR2” (Janssen Pharmaceutica N.V., priority 2008, dated 2013).

Target: T1, CCR2 (Homo sapiens, UniProt P41597)
T1 construct: host or cells: THP-1 (human monocytic cell line), whole cells
Test: MCP-1 Receptor Binding Assay in THP-1 Cells
Conditions: 0.5 nM 125I labeled MCP-1, 2 hours at 30° C., read-out: Inhibition of MCP-1 Binding IC50, CCR2 Binding
Description: Compounds of the invention were subjected to various representative biological tests. […] MCP-1 Receptor Binding Assay in THP-1 Cells
Human monocytic cell line THP-1 cells were obtained from American Type Culture Collection (Manassas, Va., USA). […] The cell density was maintained […].
1 μM cold MCP-1 was used for nonspecific binding.

T1 sequence (P41597 whole entry): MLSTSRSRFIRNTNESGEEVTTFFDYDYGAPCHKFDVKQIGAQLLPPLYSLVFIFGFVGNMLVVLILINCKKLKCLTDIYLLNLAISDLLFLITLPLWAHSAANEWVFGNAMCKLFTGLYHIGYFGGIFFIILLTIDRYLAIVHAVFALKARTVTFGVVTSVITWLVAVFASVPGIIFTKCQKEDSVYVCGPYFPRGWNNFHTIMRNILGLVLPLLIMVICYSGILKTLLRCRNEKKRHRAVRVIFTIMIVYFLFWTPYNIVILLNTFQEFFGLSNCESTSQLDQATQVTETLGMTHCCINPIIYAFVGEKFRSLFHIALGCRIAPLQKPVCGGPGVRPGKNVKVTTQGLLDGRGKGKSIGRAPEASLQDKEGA

Structure (SMILES)	IC50 [nM]
COc1ccc(C2(O)CCC(N3CC(NC(=O)CNC(=O)c4ccc5c(c4)OCO5)C3)CC2)cn1 (centres unmarked) [Example 20, Benzo[1,3]dioxole-5-carboxylic acid ({1-[4-hydroxy-4-(6-methoxy-pyridin-3-yl)-cyclohexyl]-azetidin-3-ylcarbamoyl}-methyl)-amide]	6900
COc1ccc(C2(O)CCC(N3CC(NC(=O)CNC(=O)c4cccc(C)c4)C3)CC2)cn1 (centres unmarked) [Example 22, N-({1-[4-Hydroxy-4-(6-methoxy-pyridin-3-yl)-cyclohexyl]-azetidin-3-ylcarbamoyl}-methyl)-3-methyl-benzamide]	2300
C[S+]([O-])c1ncc(C2(O)CCC(N3CC(NC(=O)CNC(=O)c4cccc(C(F)(F)F)c4)C3)CC2)s1 (single isomer, unassigned) [Example 46, N-({1-[4-Hydroxy-4-(2-methanesulfinyl-thiazol-5-yl)-cyclohexyl]-azetidin-3-ylcarbamoyl}-methyl)-3-trifluoromethyl-benzamide]	660
Cc1ccc(C2(O)CCC(N3CC(NC(=O)CNC(=O)c4cc(C(F)(F)F)ccc4Cl)C3)CC2)cn1 (single isomer, unassigned) [Example 70a, 2-Chloro-N-({1-[4-hydroxy-4-(6-methyl-pyridin-3-yl)-cyclohexyl]-azetidin-3-ylcarbamoyl}-methyl)-5-trifluoromethyl-benzamide]	590
O=C(CNC(=O)c1cccc(C(F)(F)F)c1)NC1CN(C2CCC(O)(c3ccc(Br)cn3)CC2)C1 (single isomer, unassigned) [Example 25a, N-({1-[4-(5-Bromo-pyridin-2-yl)-4-hydroxy-cyclohexyl]-azetidin-3-ylcarbamoyl}-methyl)-3-trifluoromethyl-benzamide]	3100
O=C(CNC(=O)c1cccc(C(F)(F)F)c1)NC1CN(C2CCC(O)(c3cnc(O)s3)CC2)C1 (centres unmarked) [Example 48, N-({1-[4-Hydroxy-4-(2-hydroxy-thiazol-5-yl)-cyclohexyl]-azetidin-3-ylcarbamoyl}-methyl)-3-trifluoromethyl-benzamide]	560
O=C(CNC(=O)c1cccc(C(F)(F)F)c1)NC1CN(C2CCC(O)(c3cnc(N4CCCC4)s3)CC2)C1 (centres unmarked) [Example 51, N-({1-[4-Hydroxy-4-(2-pyrrolidin-1-yl-thiazol-5-yl)-cyclohexyl]-azetidin-3-ylcarbamoyl}-methyl)-3-trifluoromethyl-benzamide]	3300
N#CNc1ncc(C2(O)CCC(N3CC(NC(=O)CNC(=O)c4cccc(C(F)(F)F)c4)C3)CC2)s1 (centres unmarked) [Example 55, N-({1-[4-(2-Cyanoamino-thiazol-5-yl)-4-hydroxy-cyclohexyl]-azetidin-3-ylcarbamoyl}-methyl)-3-trifluoromethyl-benzamide]	1200
COc1ccc(C2(O)CCC(N3CC(NC(=O)CNC(=O)c4ccc(C(F)(F)F)cc4)C3)CC2)cn1 (centres unmarked) [Example 16, N-({1-[4-Hydroxy-4-(6-methoxy-pyridin-3-yl)-cyclohexyl]-azetidin-3-ylcarbamoyl}-methyl)-4-trifluoromethyl-benzamide]	6450
CN(C)c1ncc(C2(O)CCC(N3CC(NC(=O)CNC(=O)c4cccc(C(F)(F)F)c4)C3)CC2)s1 (centres unmarked) [Example 50, N-({1-[4-(2-Dimethylamino-thiazol-5-yl)-4-hydroxy-cyclohexyl]-azetidin-3-ylcarbamoyl}-methyl)-3-trifluoromethyl-benzamide]	560
O=C(CNC(=O)c1cc(C(F)(F)F)ccc1C(F)(F)F)NC1CN(C2CCC(O)(c3nccs3)CC2)C1 (centres unmarked) [Example 68, N-{[1-(4-Hydroxy-4-thiazol-2-yl-cyclohexyl)-azetidin-3-ylcarbamoyl]-methyl}-2,5-bis-trifluoromethyl-benzamide]	500
C[Si](C)(C)c1ncc(C2(O)CCC(N3CC(NC(=O)CNC(=O)c4cccc(C(F)(F)F)c4)C3)CC2)s1 (single isomer, unassigned) [Example 39a, N-({1-[4-Hydroxy-4-(2-trimethylsilanyl-thiazol-5-yl)-cyclohexyl]-azetidin-3-ylcarbamoyl}-methyl)-3-trifluoromethyl-benzamide]	13
COc1ccc(C2(O)CCC(N3CC(NC(=O)CNC(=O)c4cc(F)cc(F)c4)C3)CC2)cn1 (centres unmarked) [Example 19, 3,5-Difluoro-N-({1-[4-hydroxy-4-(6-methoxy-pyridin-3-yl)-cyclohexyl]-azetidin-3-ylcarbamoyl}-methyl)-benzamide]	4300
COc1ncc(C2(O)CCC(N3CC(NC(=O)CNC(=O)c4cccc(C(F)(F)F)c4)C3)CC2)cn1 (single isomer, unassigned) [Example 28a, N-({1-[4-Hydroxy-4-(2-methoxy-pyrimidin-5-yl)-cyclohexyl]-azetidin-3-ylcarbamoyl}-methyl)-3-trifluoromethyl-benzamide]	1100
O=C(CNC(=O)c1cccc(C(F)(F)F)c1)NC1CN(C2CCC(O)(c3ccc(OCc4ccccc4)nc3)CC2)C1 (single isomer, unassigned) [Example 7a, N-({1-[4-(6-Benzyloxy-pyridin-3-yl)-4-hydroxy-cyclohexyl]-azetidin-3-ylcarbamoyl}-methyl)-3-trifluoromethyl-benzamide]	1900

Results, then the compound that gave them:

IC50 [nM]	Structure (SMILES)
190	O=C(CNC(=O)c1cccc(C(F)(F)F)c1)NC1CN(C2CCC(O)(c3cccnc3)CC2)C1 (centres unmarked) [Example 15, N-{[1-(4-Hydroxy-4-pyridin-3-yl-cyclohexyl)-azetidin-3-ylcarbamoyl]-methyl}-3-trifluoromethyl-benzamide]
260	CS(=O)(=O)c1ncc(C2(O)CCC(N3CC(NC(=O)CNC(=O)c4cccc(C(F)(F)F)c4)C3)CC2)s1 (single isomer, unassigned) [Example 47a, N-({1-[4-Hydroxy-4-(2-methanesulfonyl-thiazol-5-yl)-cyclohexyl]-azetidin-3-ylcarbamoyl}-methyl)-3-trifluoromethyl-benzamide]
240	Cc1ccc(C2(O)CCC(N3CC(NC(=O)CNC(=O)c4cc(C(F)(F)F)ccc4C(F)(F)F)C3)CC2)cn1 (single isomer, unassigned) [Example 69a, N-({1-[4-Hydroxy-4-(6-methyl-pyridin-3-yl)-cyclohexyl]-azetidin-3-ylcarbamoyl}-methyl)-2,5-bis-trifluoromethyl-benzamide]
260	Nc1ncc(C2(O)CCC(N3CC(NC(=O)CNC(=O)c4cccc(C(F)(F)F)c4)C3)CC2)s1 (centres unmarked) [Example 49, N-({1-[4-(2-Amino-thiazol-5-yl)-4-hydroxy-cyclohexyl]-azetidin-3-ylcarbamoyl}-methyl)-3-trifluoromethyl-benzamide]
37	Cc1ccc(C2(O)CCC(N3CC(NC(=O)CNC(=O)c4cc(F)cc(C(F)(F)F)c4)C3)CC2)cn1 (single isomer, unassigned) [Example 64a, 3-Fluoro-N-({1-[4-hydroxy-4-(6-methyl-pyridin-3-yl)-cyclohexyl]-azetidin-3-ylcarbamoyl}-methyl)-5-trifluoromethyl-benzamide]
73	COc1ncc(C2(O)CCC(N3CC(NC(=O)CNC(=O)c4cccc(C(F)(F)F)c4)C3)CC2)s1 (centres unmarked) [Example 52, N-({1-[4-Hydroxy-4-(2-methoxy-thiazol-5-yl)-cyclohexyl]-azetidin-3-ylcarbamoyl}-methyl)-3-trifluoromethyl-benzamide]
370	O=C(CNC(=O)c1cc(C(F)(F)F)cc(C(F)(F)F)c1)NC1CN(C2CCC(O)(c3nccs3)CC2)C1 (single isomer, unassigned) [Example 67a, N-{[1-(4-Hydroxy-4-thiazol-2-yl-cyclohexyl)-azetidin-3-ylcarbamoyl]-methyl}-3,5-bis-trifluoromethyl-benzamide]
120	COc1ccc(C2(O)CCC(N3CC(NC(=O)CNC(=O)c4ccc(Cl)c(Cl)c4)C3)CC2)cn1 (centres unmarked) [Example 18, 3,4-Dichloro-N-({1-[4-hydroxy-4-(6-methoxy-pyridin-3-yl)-cyclohexyl]-azetidin-3-ylcarbamoyl}-methyl)-benzamide]
370	Cc1csc(C2(O)CCC(N3CC(NC(=O)CNC(=O)c4cccc(C(F)(F)F)c4)C3)CC2)n1 (single isomer, unassigned) [Example 38a, N-({1-[4-Hydroxy-4-(4-methyl-thiazol-2-yl)-cyclohexyl]-azetidin-3-ylcarbamoyl}-methyl)-3-trifluoromethyl-benzamide]
340	C#Cc1ncc(C2(O)CCC(N3CC(NC(=O)CNC(=O)c4cccc(C(F)(F)F)c4)C3)CC2)s1 (single isomer, unassigned) [Example 44a, N-({1-[4-(2-Ethynyl-thiazol-5-yl)-4-hydroxy-cyclohexyl]-azetidin-3-ylcarbamoyl}-methyl)-3-trifluoromethyl-benzamide]
70	O=C(CNC(=O)c1cc(F)cc(C(F)(F)F)c1)NC1CN(C2CCC(O)(c3cncs3)CC2)C1 (centres unmarked) [Example 65, 3-Fluoro-N-{[1-(4-hydroxy-4-thiazol-5-yl-cyclohexyl)-azetidin-3-ylcarbamoyl]-methyl}-5-trifluoromethyl-benzamide]
3.8	O=C(CNC(=O)c1cccc(C(F)(F)F)c1)NC1CN(C2CCC(O)(c3nc4ccc(Br)cc4s3)CC2)C1 (single isomer, unassigned) [Example 36a, N-({1-[4-(6-Bromo-benzothiazol-2-yl)-4-hydroxy-cyclohexyl]-azetidin-3-ylcarbamoyl}-methyl)-3-trifluoromethyl-benzamide]
90	Cc1cc(C2(O)CCC(N3CC(NC(=O)CNC(=O)c4cccc(C(F)(F)F)c4)C3)CC2)sn1 (single isomer, unassigned) [Example 58a, N-({1-[4-Hydroxy-4-(3-methyl-isothiazol-5-yl)-cyclohexyl]-azetidin-3-ylcarbamoyl}-methyl)-3-trifluoromethyl-benzamide]
200	Cc1ncc(C2(O)CCC(N3CC(NC(=O)CNC(=O)c4cccc(C(F)(F)F)c4)C3)CC2)s1 (single isomer, unassigned) [Example 41a, N-({1-[4-Hydroxy-4-(2-methyl-thiazol-5-yl)-cyclohexyl]-azetidin-3-ylcarbamoyl}-methyl)-3-trifluoromethyl-benzamide]
